From PubChem BioAssay (NCI)
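Each compound was tested at five concentrations against cells in 96-well plates for 48 hours. GI50 is the concentration that inhibits growth by half. Definition used: TGI = concentration required for complete inhibition of growth.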

Legend:
Test in all cases: inhibition of tumour cell growth, NCI panel, 48 h
[1] = test system: CCRF-CEM leukemia
[2] = test system: HCT-15 colon
[3] = test system: HOP-62 NSCLC
[4] = test system: IGROV1 ovarian
[5] = test system: NCI/ADR-RES ovarian
[6] = test system: SK-MEL-2 melanoma
[7] = test system: SK-MEL-28 melanoma
[8] = test system: SK-MEL-5 melanoma
[9] = test system: SNB-19 CNS
[10] = test system: SNB-75 CNS

| SMILES | GI50 [1] [µM] | TGI [1] [µM] | GI50 [2] [µM] | TGI [2] [µM] | GI50 [3] [µM] | TGI [3] [µM] | GI50 [4] [µM] | TGI [4] [µM] | GI50 [5] [µM] | TGI [5] [µM] | GI50 [6] [µM] | TGI [6] [µM] | GI50 [7] [µM] | TGI [7] [µM] | GI50 [8] [µM] | TGI [8] [µM] | GI50 [9] [µM] | TGI [9] [µM] | GI50 [10] [µM] | TGI [10] [µM] |
| --- | --- | --- | --- | --- | --- | --- | --- | --- | --- | --- | --- | --- | --- | --- | --- | --- | --- | --- | --- | --- |
| O=[N+]([O-])c1ccc(N=Nc2ccc(O)c3ccccc23)cc1 | 4.24 | 35.7 | 3.29 | > 100 | 20.3 | > 100 | 5.27 | > 100 | 2.41 | 55.8 | 3.23 | 21.8 | 6.59 | > 100 | 2.55 | 13.6 | 4.76 | > 100 | 2.45 | > 100 |
| COc1ccc(CC(=O)c2ccc(O)cc2O)cc1 | 49.4 | > 100 | > 100 | > 100 | > 100 | > 100 | 53.4 | > 100 | 58.8 | > 100 | > 100 | > 100 | > 100 | > 100 | 48.3 | > 100 | > 100 | > 100 | > 100 | > 100 |
| O=C1NOC(c2ccc(O)cc2)(c2ccc(O)cc2)c2ccccc21 | > 100 | > 100 | > 100 | > 100 | > 100 | > 100 | > 100 | > 100 | > 100 | > 100 | > 100 | > 100 | > 100 | > 100 | > 100 | > 100 | > 100 | > 100 | > 100 | > 100 |
| COc1ccc(C2=C(c3ccc(OC)c(OC)c3)C(=O)N3CCCC3C2)cc1 (stereo not given) | 8.03 | > 100 | 5.18 | > 100 | 14.7 | > 100 | 13.3 | > 100 | 39.6 | > 100 | > 71.1 | > 100 | 73.3 | > 100 | 9.03 | > 72.6 | 63.8 | > 100 | 16.6 | > 72.9 |
| C=C1c2ccoc2C[C@H]2[C@H]1CC[C@@]1(O)[C@@](C)(C(=O)OC)CCC[C@]21C | 23.5 | 60.1 | 24.9 | 64.9 | 40.7 | > 100 | 11.2 | 38.4 | 42.5 | > 100 | 19 | 42.2 | 54.2 | > 100 | 18.1 | 37.8 | 62.1 | > 100 | > 100 | > 100 |
| Cc1ccc(-c2nc3nc(-c4ccccc4)nc(N4CCNCC4)c3o2)cc1 | 0.276 | 0.729 | 0.291 | 0.834 | 1.48 | 2.98 | 0.577 | 1.41 | 0.776 | 2.21 | 1.86 | 3.64 | 1.89 | 3.43 | 1.65 | 3.04 | 1.06 | 2.58 | 1.58 | 3.02 |
| O=C1C(SCCO)=C(SCCO)C(=O)N1c1ccc(-c2ccccc2)cc1 | 2.34 | 6.87 | 2.13 | 5.31 | 4.88 | 10.6 | 2.02 | 4.67 | 3.54 | 16.2 | 0.259 | 1.69 | 2.41 | 6.65 | 9.46 | 24.6 | 19.8 | 43.1 | 4.1 | 11.1 |
| COC(=O)Nc1nc2ccc(Oc3cccc(NC(=O)Nc4cc(C(F)(F)F)ccc4F)c3)cc2[nH]1 | 10.1 | > 25 | 11.8 | > 25 | 13.3 | > 25 | 12.1 | > 25 | 24.8 | > 25 | 5.28 | 19.5 | 11.3 | > 25 | 5.97 | > 17.4 | > 25 | > 25 | 8.53 | > 25 |
| C[C@]12CC[C@@H]3c4ccc(O)cc4CC[C@H]3[C@@H]1Cc1cnc(N)nc12 | 15.3 | 40 | 16.5 | 39.1 | 25.5 | 59.1 | 35.1 | > 100 | 17.7 | 41.4 | 26.9 | > 100 | 10.7 | 26.1 | 12.8 | 26.1 | 14.4 | 43 | 16.5 | 42.9 |
| O=C1C(c2cnc3ccccc3n2)=C(O)c2ccccc21 | – | > 100 | – | 9.75 | – | > 100 | – | > 100 | – | > 100 | – | > 100 | – | > 100 | – | > 100 | – | > 100 | – | 79.9 |
| Cc1cn2c(/C=C3/C(=O)Nc4ccc(O)cc43)c(C)nc2s1 | 1.25 | – | 3.78 | > 58.5 | 2.89 | > 68 | 7.23 | > 100 | 20.9 | > 70.6 | > 53 | > 100 | 8.44 | > 100 | 1.4 | 7.74 | 5.47 | > 100 | 4.61 | > 100 |
| COc1ccc(N(/C=C/C(=O)C(F)(F)F)CC(=O)c2ccc(F)cc2)cc1 | 19.7 | 95.1 | 16 | 38.7 | 20 | 44.9 | 13 | 30.7 | 31.2 | 87.4 | 31.6 | 67.2 | 41.1 | > 100 | 14.8 | 32 | 36.6 | > 100 | > 100 | > 100 |
| O1[As]2O[As]3O[As]1O[As](O2)O3 | 0.161 | 1.11 | 1.08 | 4.79 | 1 | 2.55 | 0.457 | 2.7 | 1.43 | 5.11 | 1.84 | 16.7 | 1.02 | 2.45 | 0.473 | 1.75 | 1.65 | 4.44 | 0.389 | 3.34 |
| Nc1ncnc2c1c(-c1ccc(Oc3ccccc3)cc1)nn2C[C@@H]1SSC[C@H]1O | 0.278 | > 100 | 1.16 | 7.31 | 0.797 | 6.74 | 1.34 | 4.2 | 2.96 | 14 | 0.826 | 3.13 | 0.084 | 12 | 0.874 | 2.3 | 2.88 | 13.3 | 4.25 | > 33.4 |
| CC[C@H](CO)Nc1nc(NCc2ccccc2)c2ncn(C(C)C)c2n1 | > 50.6 | > 100 | – | > 81.6 | 29.4 | > 94 | 11.9 | > 86.2 | 10.9 | 56.6 | – | 44.6 | 21.5 | 74.9 | – | 35.5 | 26.4 | > 100 | – | 30.6 |
| Cc1ccc(C(=O)NC2CCC2)cc1-c1ccc(C(=O)NCC2CC2)cc1 | > 25 | > 25 | > 25 | > 25 | > 25 | > 25 | > 25 | > 25 | > 25 | > 25 | > 25 | > 25 | > 25 | > 25 | > 21.5 | > 25 | > 25 | > 25 | > 25 | > 25 |
| Nc1c(C(=O)c2cccc(C#CCO)c2)cnn1-c1ccc(F)cc1 | > 25 | > 25 | > 25 | > 25 | > 25 | > 25 | > 25 | > 25 | > 25 | > 25 | > 25 | > 25 | > 25 | > 25 | > 25 | > 25 | > 25 | > 25 | > 25 | > 25 |
| COC(=N)c1c(N)[n+]([O-])c2ccc(F)cc2[n+]1[O-] | > 100 | > 100 | > 100 | > 100 | > 100 | > 100 | 18.1 | 86.5 | > 100 | > 100 | > 100 | > 100 | > 100 | > 100 | 52.6 | > 100 | > 100 | > 100 | 96.2 | > 100 |
